According to PMC9826346, “One‐Pot Chemoenzymatic Synthesis of Microviridin Analogs Containing Functional Tags” (Chembiochem, 2022):
Bridge positions count the residues as written; N and C are the ends. Peptide text beside a SMILES is read from it. * marks the point of attachment. Biotin = O=C1N[C@H]2[C@H](CS[C@H]2CCCCC(=O)*)N1; Dansyl = CN(C)c1cccc2c(S(=O)(=O)*)cccc12; Propargyl = C#CC*

Tests used:
[1] = biological target: porcine pancreas elastase (Sus scrofa, UniProt P00772); experiment: biochemical
Chain of porcine pancreas elastase (P00772 27-266): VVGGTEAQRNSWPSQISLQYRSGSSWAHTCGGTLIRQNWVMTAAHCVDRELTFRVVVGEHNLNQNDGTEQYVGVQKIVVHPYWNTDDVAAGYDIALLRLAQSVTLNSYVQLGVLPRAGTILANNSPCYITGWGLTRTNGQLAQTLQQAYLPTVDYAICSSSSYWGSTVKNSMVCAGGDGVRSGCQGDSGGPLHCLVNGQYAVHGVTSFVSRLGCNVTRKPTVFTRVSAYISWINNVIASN
Protocol: (§1) Protease inhibition assay: Microviridins were checked for their inhibitory activity against trypsin and elastase. Therefore, microviridin concentrations of 0.01 μM, 0.1 μM, 1 μM, 10 μM and 100 μM were tested. A sample without microviridin was used as control. As substrates N α‐Benzoyl‐DL‐arginine 4‐nitroanilide hydrochloride (BAPNA) was used for the trypsin assay and N‐Succinyl‐Ala‐Ala‐Ala‐p‐nitroanilide (Suc‐AAA‐pNA) for the elastase assays. The trypsin assay was performed with 16.7 μg/mL (approximately 42.7 U/mL) bovine trypsin (Carl Roth (Germany)) and 108.5 μg/mL BAPNA (Sigma‐Aldrich (Germany)) in 50 mM Tris‐HCl, 20 mM CaCl2, 0.5 % DMSO, pH 7.5. The elastase assay was performed with 50 μg/mL (250 mU/mL) porcine pancreas elastase (Sigma‐Aldrich (Germany) and 500 μg/mL Suc‐AAA‐pNA (Sigma‐Aldrich (Germany)) in 50 mM Tris‐HCl, 20 mM CaCl2, pH 7.5. All microviridins were dissolved in water to a concentration of 500 μM except of tricyclic MvB_CP_N(dansyl), which was dissolved in water containing 10 % DMSO. Before adding the substrate, each enzyme was incubated for 5 min with the respective inhibitor at room temperature. Afterwards, the substrate was added, and the assays were incubated for 15 min (elastase assay) and 30 min (trypsin assay) at 37 °C. The enzymatic activity was measured spectrophotometrically (Varioscan Flash, Thermo Scientific) at 410 nm. The assays were done twice for each sample. IC50 values were calculated using the Quest Graph™ IC50 Calculator.[21]

bovine trypsin = bovine trypsin (Bos taurus, UniProt P00760); experiment: biochemical
Chain of bovine trypsin (P00760 24-246): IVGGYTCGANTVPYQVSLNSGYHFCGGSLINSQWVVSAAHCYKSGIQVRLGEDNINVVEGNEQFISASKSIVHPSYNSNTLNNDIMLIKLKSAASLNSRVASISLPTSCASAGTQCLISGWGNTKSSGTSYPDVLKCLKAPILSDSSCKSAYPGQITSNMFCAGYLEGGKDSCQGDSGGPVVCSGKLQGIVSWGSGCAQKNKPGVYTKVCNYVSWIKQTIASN
Protocol: as §1

trypsin = conditions: read-out: KD for the interaction of trypsin and microviridin J; cited from earlier work
From the text: Naturally, microviridins act as competitive inhibitors that bind tightly to their corresponding proteases in a substrate‐like manner, for which turnover is excluded. […] Therefore, the chemical probes that show protease inhibition in the range of the unmodified microviridin derivatives could be expected to work as molecular tools. However, since the activity of dansylated microviridin B is clearly compromised (Table 1), the compound's affinity for elastase might not be strong enough for diagnos ...

Daphnia = conditions: microcrustaceans of the genus Daphnia; cited from earlier work
From the text: While the bioactivity and mode of action against mammalian serine proteases is well investigated for microviridins[[2a], [8]] and plesiocin,[9] their ecological roles and native targets remain elusive. […] However, neither specific protease targets could be identified, nor could a mode of action be specified. One hypothesis is based on the depletion of the amino acid pool essential for ...

Work on CC(C)C[C@@H]1NC(=O)[C@@H](NC(=O)[C@@H](NC(=O)CNC(=O)[C@H](Cc2ccccc2)NC(=O)[C@@H](N)CCCCNC(=O)CCCC[C@@H]2SC[C@@H]3NC(=O)N[C@@H]32)[C@@H](C)O)[C@@H](C)OC(=O)C[C@@H]2NC(=O)[C@@H]3COC(=O)CC[C@H](NC(=O)[C@H](Cc4c[nH]c5ccccc45)NC2=O)C(=O)N[C@H](C(=O)N[C@@H](Cc2ccc(O)cc2)C(=O)O)CCC(=O)NCCCC[C@H](NC1=O)C(=O)N[C@@H](Cc1ccc(O)cc1)C(=O)N1CCC[C@H]1C(=O)N3 [MvB_CP_N(Bio)cy3 (5)] (H-K(Biotin)FGTTLKYPSDWEEY-OH; ester 5-11, 10-13; lactam 7-14) yielded an IC50 [1] of 1240 ± 640 nM.

Work on CC(C)C[C@@H]1NC(=O)[C@@H](NC(=O)[C@@H](NC(=O)CNC(=O)[C@H](Cc2ccccc2)NS(=O)(=O)c2cccc3c(N(C)C)cccc23)[C@@H](C)O)[C@@H](C)OC(=O)C[C@@H]2NC(=O)[C@@H]3COC(=O)CC[C@H](NC(=O)[C@H](Cc4c[nH]c5ccccc45)NC2=O)C(=O)N[C@H](C(=O)N[C@@H](Cc2ccc(O)cc2)C(=O)O)CCC(=O)NCCCC[C@H](NC1=O)C(=O)N[C@@H](Cc1ccc(O)cc1)C(=O)N1CCC[C@H]1C(=O)N3 [MvB_CP_N(Dansyl)cy3 (6)] (Dansyl-FGTTLKYPSDWEEY-OH; ester 4-10, 9-12; lactam 6-13) yielded an IC50 [1] of 28000 ± 7170 nM.

For CC(C)C[C@@H]1NC(=O)[C@@H](NC(=O)[C@@H](NC(=O)CNC(=O)[C@@H](N)Cc2ccccc2)[C@@H](C)O)[C@@H](C)OC(=O)C[C@@H]2NC(=O)[C@@H]3COC(=O)CC[C@H](NC(=O)[C@H](Cc4c[nH]c5ccccc45)NC2=O)C(=O)N[C@H](C(=O)N[C@@H](Cc2ccc(O)cc2)C(=O)O)CCC(=O)NCCCC[C@H](NC1=O)C(=O)N[C@@H](Cc1ccc(O)cc1)C(=O)N1CCC[C@H]1C(=O)N3 [MvB_CPcy3 (4)] (H-FGTTLKYPSDWEEY-OH; ester 4-10, 9-12; lactam 6-13), the IC50 [1] was 330 ± 20 nM.

CC[C@H](C)[C@H](NC(=O)[C@@H](N)CCCCNC(=O)CCCC[C@@H]1SC[C@@H]2NC(=O)N[C@@H]21)C(=O)N[C@@H](CO)C(=O)N[C@@H]1C(=O)N[C@@H](CCCNC(=N)N)C(=O)N[C@H]2CCCCNC(=O)CC[C@@H](C(=O)N[C@@H](Cc3c[nH]c4ccccc34)C(=O)O)NC(=O)[C@@H]3CCC(=O)OC[C@H](NC(=O)[C@@H]4CCCN4C(=O)[C@H](Cc4ccc(O)cc4)NC2=O)C(=O)N[C@@H](CC(=O)O[C@@H]1C)C(=O)N[C@@H](Cc1c[nH]c2ccccc12)C(=O)N3 [MvJ_CP_N(Bio)cy3 (2)] (H-K(Biotin)ISTRKYPSDWEEW-OH; ester 4-10, 9-12; lactam 6-13) gave an IC50 (bovine trypsin) of 3530 ± 300 nM.

Molecule C#CCOc1ccc(C[C@H](N)C(=O)N[C@H](C(=O)N[C@@H](CO)C(=O)N[C@@H]2C(=O)N[C@@H](CCCNC(=N)N)C(=O)N[C@H]3CCCCNC(=O)CC[C@@H](C(=O)N[C@@H](Cc4c[nH]c5ccccc45)C(=O)O)NC(=O)[C@@H]4CCC(=O)OC[C@H](NC(=O)[C@@H]5CCCN5C(=O)[C@H](Cc5ccc(O)cc5)NC3=O)C(=O)N[C@@H](CC(=O)O[C@@H]2C)C(=O)N[C@@H](Cc2c[nH]c3ccccc23)C(=O)N4)[C@@H](C)CC)cc1 [MvJ_CP_N(Prop)cy3 (3)] (H-Y(Propargyl)ISTRKYPSDWEEW-OH; ester 4-10, 9-12; lactam 6-13) has an IC50 (bovine trypsin) of 1640 ± 120 nM.

For CC[C@H](C)[C@H](N)C(=O)N[C@@H](CO)C(=O)N[C@@H]1C(=O)N[C@@H](CCCNC(=N)N)C(=O)N[C@H]2CCCCNC(=O)CC[C@@H](C(=O)N[C@@H](Cc3c[nH]c4ccccc34)C(=O)O)NC(=O)[C@@H]3CCC(=O)OC[C@H](NC(=O)[C@@H]4CCCN4C(=O)[C@H](Cc4ccc(O)cc4)NC2=O)C(=O)N[C@@H](CC(=O)O[C@@H]1C)C(=O)N[C@@H](Cc1c[nH]c2ccccc12)C(=O)N3 [MvJ_CPcy3 (1)] (H-ISTRKYPSDWEEW-OH; ester 3-9, 8-11; lactam 5-12), the IC50 (bovine trypsin) was 1090 ± 90 nM.

In the case of microviridin J, the Kd (trypsin) is given as 680 nM and the “Effect on Daphnia” value (Daphnia) is given as “lethal molting disruption”.
